The subject of data set [1] is OvCar8 cells. Put plainly: 2D monolayer viability assay (ApoLive-Glo). The class given is cell-based. To be noted: Homo sapiens, OVCAR-8; OvCar8 2D monolayer, 48 h. On the procedure:
The efficacy of metabolites can have a significant impact on the efficacy of the drug. […] The therapeutic effect of P8-D6 mono and P8-D6 N-oxide was investigated in vitro in human ovarian cancer 2D monolayers and 3D spheroids (Figures and ). 48 h of treatment of the ovarian cancer cell lines (OvCar8, A2780, Igrov-1) with P8-D6 mono and P8-D6 N-oxide was compared to P8-D6 and cisplatin (study preparation scheme supplied as Figure S5). Both metabolites decreased viability in ovarian cancer cells in a 2D monolayer (Figure A, supplied as Figure S3 A,C).
(§1) The human ovarian cancer cell lines OvCar8, Igrov-1, and A2780, purchased from ATCC, were maintained in RPMI1640 medium, including L-glutamine supplemented with 10% fetal bovine serum and 60 IU/mL penicillin–streptomycin. Cells were grown at 37 °C and 5% CO2 in a humidified incubator and subcultivated at a confluency of 70–80%. Cell line authenticity was checked by STR profiling as described previously, and mycoplasma contamination was routinely investigated using MycoAlert (Lonza).
For the measurements of viability and apoptosis, cells of approximately 8000/well were seeded in a Corning No. 3903 plate and treated with the corresponding drugs for 48 h. After treatment, apoptosis and cell viability assays were performed using an ApoLive-Glo Multiplex Assay Kit (Promega #G6410) according to the manufacturer’s instructions. Fluorescence and luminescence units were measured by using a microplate multimode reader (Spark, Tecan). Relative caspase activity was calculated as caspase activity divided by viability (normalized to control). […] All experiments were performed in biological triplicates. PBS was used as the negative control, and cisplatin and P8-D6 were used as the positive controls.

Data set [2] deals with OvCar8, A2780, Igrov-1 cells. Put plainly: Metabolism in ovarian cancer cell culture supernatants (HPLC). The class given is in vitro ADME, human. Conditions: for total metabolism (sum of all detected metabolites as percentage of the substrate): supernatants of OvCar8, A2780, Igrov-1 after treatment. As to the method: After treatment, the supernatants of the cell cultures were collected in order to quantify metabolites by HPLC. In Figure 3 C, the total metabolism in % (as the sum of all detected metabolites as a percentage of the substrate) is shown in dependency of the respective treatment. Overall, P8-D6 is always the most metabolized substrate at ∼5%, followed by P8-D6 N-oxide at ∼2.6% and P8-D6 mono at ∼1%. […] In contrast to previous incubation with homogenized tissue (Figure ), P8-D6 was mostly metabolized to P8-DO (2.05%) and to a lesser extent to P8-D6 mono and P8-D6 N-oxide. P8-D6 mono was converted to P8-DO and less extensively metabolized to P8-D6 and a new unknown metabolite (0.10%). Due to the increased polarity and, therefore, decreased HPLC retention time, a nitrone would be thinkable. Such reactions have been described in the literature. − However, due to the very limited content of this metabolite, it could not be identified further. During incubation with P8-D6 N-oxide, P8-D6 features the major metabolite, while P8-D6 mono and P8-DO were formed to a lesser amount. The protein expression of Cyp3A4, mARC1 and 2, and FMO3 in the cell lines used was analyzed by Western blot (Figure 3 E).
as §1

Data set [3] is described as follows: In vitro biotransformation of P8-D6 with pig liver fractions. The class given is in vitro ADME. To be noted: for formation of metabolite from P8-D6: 1 mM P8-D6, 150 min. As to the method:
P8-D6 (1 mM) was incubated with postnuclear supernatant (PNS), microsomes, or S9 reaction mixture of various tissue samples (liver, kidney, lung, spleen, and colon) from different donor species (pigs, mice, rats, and humans) for 150 min (study preparation scheme supplied as Figure S5). The commercial human and rat enzymes were subjected to quality control by the supplier. Three phase I metabolites were identified. […] LC-MS and NMR spectroscopic data for the metabolites are given in Supporting Information. Based on the structural characteristics, the metabolites were named as follows: P8-DO (4), P8-D6 N-oxide (6), and P8-D6 mono (8). All metabolites were synthesized to confirm the postulated structure (chapter Synthesis of Metabolites). The extent of metabolism during in vitro incubation was highly dependent on the species (pig > mouse > rat > human) (Figure ).
For all phase I metabolism studies (except cell cultures), a 0.3 mL reaction mixture consisting of 1 mM substrate (P8-D6, P8-D6 mono, P8-D6 N-oxide), 1 mM NADPH as a cofactor, 0.67 mg/mL protein from homogenized tissue or subcellular fractions, respectively (except recombinant enzymes, where 0.5 mg/mL was used), and PBS buffer (pH 7.4) was used. All experiments were performed in biological triplicates. The FDA Guidance for Industry highlights 7 CYP isoenzymes (1A2, 2B6, 2C8, 2C9, 2C19, 2D6, and 3A4/5) which routinely should be tested for metabolism during drug development. Table S1 presents an overview of the tissue material and species as well as the CYP enzymes used in this study. All reactions were carried out at 37 °C in a shaking water bath for 150 min before they were stopped with 0.3 mL of an ice-cold mixture of acetonitrile/methanol (1:1). The suspension was vortexed for 30 s and centrifuged at 15000 g for 5 min, and finally, 10 μL of the supernatant was injected into the HPLC. Control samples were prepared with buffer instead of either protein/tissue, cofactor, or substrate.

`CNCCOc1nc2c3cnccc3cc(-c3cc(OC)c(OC)c(OC)c3)c2c2ccncc12` [P8-D6 mono]: the IC50 in data set [1] is 310 nM. The “total metabolism (sum of all detected metabolites as percentage of the substrate)” value in data set [2] was around 1%. For the same compound, the “formation of metabolite from P8-D6” value in data set [3] (pig liver microsomes) is reported as 1.31%. Further, the “extent of formation lower than P8-D6 N-oxide” value in data set [3] (porcine liver microsomes) amounted to 21.9 fold.
In data set [1], `COc1cc(-c2cc3ccncc3c3nc(OCC[N+](C)(C)[O-])c4cnccc4c23)cc(OC)c1OC` [P8-D6 N-oxide] gave an IC50 of 1980 nM. In addition, in data set [2], the “total metabolism (sum of all detected metabolites as percentage of the substrate)” value was around 2.6%. For the same compound, the “formation of metabolite from P8-D6” value was found to be 6.88% in data set [3] (pig liver PNS), 7.58% in data set [3] (pig liver S9-fraction) and 28.67% in data set [3] (pig liver microsomes).
Take `COc1cc(-c2cc3ccncc3c3[nH]c(=O)c4cnccc4c23)cc(OC)c1OC` [P8-DO]: in data set [2] (OvCar8 supernatant), the “metabolite formed from P8-D6” value was 2.05%. Besides, the “formation of metabolite from P8-D6” value in data set [3] (pig liver microsomes) amounted to 0.13%.
Compound `COc1cc(-c2cc3ccncc3c3nc(OCCN(C)C)c4cnccc4c23)cc(OC)c1OC` [P8-D6, 6-(N,N-dimethyl-2-aminoethoxy)-11-(3,4,5-trimethoxyphenyl)-pyrido[3,4-c][1,9]-phenanthroline] gave an IC50 in data set [1] of 270 nM. Besides, in data set [2], the “total metabolism (sum of all detected metabolites as percentage of the substrate)” value is given as around 5%.
